Data: US7964531B2, “3-phenoxy-4-pyridazinol derivatives and herbicidal composition containing the same” (Mitsui Chemicals Agro, Inc., priority 2001, dated 2011)

Assays:
Format in all cases: in vivo
Conditions in all cases: wettable powder applied 3 days after transplanting, judged after 25 days
[1] = system: transplanted paddy-field rice; assay: Test Example 1: crop injury against transplanted paddy-field rice
How it was run: (§1)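 Paddy soil pots sown with dormancy-broken weed seeds mixed into the top 1 cm, plus germinated Cyperus serotinus tubers and transplanted 2.2-leaf rice seedlings, grown flooded in a greenhouse. Water-diluted wettable powder applied 3 days after transplanting; growth inhibition scored 25 days later on a 0–5 scale (0 = 0–10%, 5 = 91–100%).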

Cyperus serotinus = assay: Test Example 1: herbicidal effects, paddy-field pot test
How it was run: as §1

Scirpus joncoides = assay: as above
How it was run: as §1

[2] = system: annual broad-leaved weeds (Lindernia spp., Rotala indica); assay: as above
How it was run: as §1

[3] = system: barnyardgrass (Echinochloa oryzicola Vasing.); assay: as above
How it was run: as §1

Compound | Crop injury against transplanted rice ([1]; chemical dosage 12.5 g/a) | Crop injury against transplanted rice ([1]; chemical dosage 25 g/a) | Herbicidal effects Cyperus serotinus (Cyperus serotinus; chemical dosage 12.5 g/a) | Herbicidal effects Cyperus serotinus (Cyperus serotinus; chemical dosage 25 g/a) | Herbicidal effects Scirpus joncoides (Scirpus joncoides; chemical dosage 12.5 g/a) | Herbicidal effects Scirpus joncoides (Scirpus joncoides; chemical dosage 25 g/a) | Herbicidal effects Broad leaf ([2]; chemical dosage 12.5 g/a) | Herbicidal effects Broad leaf ([2]; chemical dosage 25 g/a) | Herbicidal effects Barnyard grass ([3]; chemical dosage 12.5 g/a) | Herbicidal effects Barnyard grass ([3]; chemical dosage 25 g/a) | Crop injury against transplanted rice ([1]; chemical dosage 10 g/a) | Crop injury against transplanted rice ([1]; chemical dosage 20 g/a) | Herbicidal effects Cyperus serotinus (Cyperus serotinus; chemical dosage 10 g/a) | Herbicidal effects Cyperus serotinus (Cyperus serotinus; chemical dosage 20 g/a) | Herbicidal effects Scirpus joncoides (Scirpus joncoides; chemical dosage 10 g/a) | Herbicidal effects Scirpus joncoides (Scirpus joncoides; chemical dosage 20 g/a) | Herbicidal effects Broad leaf ([2]; chemical dosage 10 g/a) | Herbicidal effects Broad leaf ([2]; chemical dosage 20 g/a) | Herbicidal effects Barnyard grass ([3]; chemical dosage 10 g/a) | Herbicidal effects Barnyard grass ([3]; chemical dosage 20 g/a)
Oc1cc(Cl)nnc1Oc1ccccc1Cl [Example 50] | 0 (Growth inhibition rate; 0 to 10%) | 0 (Growth inhibition rate; 0 to 10%) | 5 (Growth inhibition rate; 91 to 100%) | 5 (Growth inhibition rate; 91 to 100%) | 3 (Growth inhibition rate; 51 to 70%) | 4 (Growth inhibition rate; 71 to 90%) | 5 (Growth inhibition rate; 91 to 100%) | 5 (Growth inhibition rate; 91 to 100%) | 2 (Growth inhibition rate; 31 to 50%) | 3 (Growth inhibition rate; 51 to 70%) |  |  |  |  |  |  |  |  |  | 
Oc1cc(Cl)nnc1Oc1cccc2c1CCCC2 [Example 179] |  |  |  |  |  |  |  |  |  |  | 0 (Growth inhibition rate; 0 to 10%) | 0 (Growth inhibition rate; 0 to 10%) | 5 (Growth inhibition rate; 91 to 100%) | 5 (Growth inhibition rate; 91 to 100%) | 3 (Growth inhibition rate; 51 to 70%) | 4 (Growth inhibition rate; 71 to 90%) | 4 (Growth inhibition rate; 71 to 90%) | 4 (Growth inhibition rate; 71 to 90%) | 0 (Growth inhibition rate; 0 to 10%) | 1 (Growth inhibition rate; 11 to 30%)
Cc1ccc(Cl)cc1Oc1nnc(Cl)cc1O [Example 204] | 0 (Growth inhibition rate; 0 to 10%) | 0 (Growth inhibition rate; 0 to 10%) | 5 (Growth inhibition rate; 91 to 100%) | 5 (Growth inhibition rate; 91 to 100%) | 5 (Growth inhibition rate; 91 to 100%) | 5 (Growth inhibition rate; 91 to 100%) | 5 (Growth inhibition rate; 91 to 100%) | 5 (Growth inhibition rate; 91 to 100%) | 2 (Growth inhibition rate; 31 to 50%) | 2 (Growth inhibition rate; 31 to 50%) |  |  |  |  |  |  |  |  |  | 
O=S(=O)(Oc1cc(Cl)nnc1Oc1ccccc1C1CC1)c1ccccc1 [Example 365] |  |  |  |  |  |  |  |  |  |  | 0 (Growth inhibition rate; 0 to 10%) | 0 (Growth inhibition rate; 0 to 10%) | 5 (Growth inhibition rate; 91 to 100%) | 5 (Growth inhibition rate; 91 to 100%) | 4 (Growth inhibition rate; 71 to 90%) | 5 (Growth inhibition rate; 91 to 100%) | 5 (Growth inhibition rate; 91 to 100%) | 5 (Growth inhibition rate; 91 to 100%) | 2 (Growth inhibition rate; 31 to 50%) | 3 (Growth inhibition rate; 51 to 70%)
COc1cccc(Br)c1Oc1nnc(Cl)cc1O [Example 255] |  |  |  |  |  |  |  |  |  |  | 0 (Growth inhibition rate; 0 to 10%) | 2 (Growth inhibition rate; 31 to 50%) | 5 (Growth inhibition rate; 91 to 100%) | 5 (Growth inhibition rate; 91 to 100%) | 4 (Growth inhibition rate; 71 to 90%) | 4 (Growth inhibition rate; 71 to 90%) | 5 (Growth inhibition rate; 91 to 100%) | 5 (Growth inhibition rate; 91 to 100%) | 5 (Growth inhibition rate; 91 to 100%) | 5 (Growth inhibition rate; 91 to 100%)
Oc1cc(Cl)nnc1Oc1c(F)cccc1Br [Example 233] |  |  |  |  |  |  |  |  |  |  | 0 (Growth inhibition rate; 0 to 10%) | 0 (Growth inhibition rate; 0 to 10%) | 4 (Growth inhibition rate; 71 to 90%) | 5 (Growth inhibition rate; 91 to 100%) | 3 (Growth inhibition rate; 51 to 70%) | 5 (Growth inhibition rate; 91 to 100%) | 4 (Growth inhibition rate; 71 to 90%) | 5 (Growth inhibition rate; 91 to 100%) | 3 (Growth inhibition rate; 51 to 70%) | 4 (Growth inhibition rate; 71 to 90%)
CC(C)(C)c1ccccc1Oc1nnc(Cl)cc1O [Example 61] | 0 (Growth inhibition rate; 0 to 10%) | 0 (Growth inhibition rate; 0 to 10%) | 5 (Growth inhibition rate; 91 to 100%) | 5 (Growth inhibition rate; 91 to 100%) | 5 (Growth inhibition rate; 91 to 100%) | 5 (Growth inhibition rate; 91 to 100%) | 5 (Growth inhibition rate; 91 to 100%) | 5 (Growth inhibition rate; 91 to 100%) | 1 (Growth inhibition rate; 11 to 30%) | 2 (Growth inhibition rate; 31 to 50%) |  |  |  |  |  |  |  |  |  | 
Cc1ccccc1Oc1nnc(Cl)cc1OC(=O)OCC(Cl)(Cl)Cl [Example 349] |  |  |  |  |  |  |  |  |  |  | 0 (Growth inhibition rate; 0 to 10%) | 0 (Growth inhibition rate; 0 to 10%) | 5 (Growth inhibition rate; 91 to 100%) | 5 (Growth inhibition rate; 91 to 100%) | 4 (Growth inhibition rate; 71 to 90%) | 5 (Growth inhibition rate; 91 to 100%) | 4 (Growth inhibition rate; 71 to 90%) | 5 (Growth inhibition rate; 91 to 100%) | 3 (Growth inhibition rate; 51 to 70%) | 4 (Growth inhibition rate; 71 to 90%)
CCOc1ccccc1Oc1nnc(Cl)cc1O [Example 122] |  |  |  |  |  |  |  |  |  |  | 0 (Growth inhibition rate; 0 to 10%) | 0 (Growth inhibition rate; 0 to 10%) | 5 (Growth inhibition rate; 91 to 100%) | 5 (Growth inhibition rate; 91 to 100%) | 4 (Growth inhibition rate; 71 to 90%) | 5 (Growth inhibition rate; 91 to 100%) | 5 (Growth inhibition rate; 91 to 100%) | 5 (Growth inhibition rate; 91 to 100%) | 0 (Growth inhibition rate; 0 to 10%) | 0 (Growth inhibition rate; 0 to 10%)
CCCc1c(C)cc(C)cc1Oc1nnc(Cl)cc1O [Example 287] | 0 (Growth inhibition rate; 0 to 10%) | 0 (Growth inhibition rate; 0 to 10%) | 1 (Growth inhibition rate; 11 to 30%) | 3 (Growth inhibition rate; 51 to 70%) | 5 (Growth inhibition rate; 91 to 100%) | 5 (Growth inhibition rate; 91 to 100%) | 5 (Growth inhibition rate; 91 to 100%) | 5 (Growth inhibition rate; 91 to 100%) | 0 (Growth inhibition rate; 0 to 10%) | 0 (Growth inhibition rate; 0 to 10%) |  |  |  |  |  |  |  |  |  | 
Cc1cccc(C)c1Oc1nnc(Cl)cc1O [Example 21] |  |  |  |  |  |  |  |  |  |  | 0 (Growth inhibition rate; 0 to 10%) |  | 5 (Growth inhibition rate; 91 to 100%) |  | 5 (Growth inhibition rate; 91 to 100%) |  | 5 (Growth inhibition rate; 91 to 100%) |  | 2 (Growth inhibition rate; 31 to 50%) | 
CC1COc2cccc(Oc3nnc(Cl)cc3O)c21 (stereo not drawn) [Example 182] |  |  |  |  |  |  |  |  |  |  |  | 0 (Growth inhibition rate; 0 to 10%) |  | 5 (Growth inhibition rate; 91 to 100%) |  | 4 (Growth inhibition rate; 71 to 90%) |  | 5 (Growth inhibition rate; 91 to 100%) |  | 2 (Growth inhibition rate; 31 to 50%)
Cc1ccc(C(C)C)c(Oc2nnc(Cl)cc2O)c1 [Example 212] | 0 (Growth inhibition rate; 0 to 10%) | 0 (Growth inhibition rate; 0 to 10%) | 5 (Growth inhibition rate; 91 to 100%) | 5 (Growth inhibition rate; 91 to 100%) | 5 (Growth inhibition rate; 91 to 100%) | 5 (Growth inhibition rate; 91 to 100%) | 5 (Growth inhibition rate; 91 to 100%) | 5 (Growth inhibition rate; 91 to 100%) | 1 (Growth inhibition rate; 11 to 30%) | 2 (Growth inhibition rate; 31 to 50%) |  |  |  |  |  |  |  |  |  | 
